Test results published in patent US11154544B2, “Amide derivatives as Nav1.7 and Nav1.8 blockers” (RaQualia Pharma Inc., priority 2017, dated 2021).

Molecular target: Nav1.7 (Homo sapiens (Human), UniProt Q15858)
Assay: EFS-FRET assay
Assay type: cell-based
Conditions: EFS-FRET, CHO cells expressing human Nav1.7; read-out: IC50 against Nav1.7
Description: This screen is used to determine the effects of compounds on human Nav1.7 channels, utilizing electrical field stimulation (EFS) system in 96-well plate format on FDSS (Hamamatsu Photonics) platform. The change of membrane potential is monitored with FRET dye pair, DiSBAC2(3) and PTS 18.
CHO (Chinese hamster ovary) cells expressing human Nav1.7 channels are grown in T225 flasks, in a 5% CO2 humidified incubator to about 80% confluence. Media composition consists of HAM/F^.12 with Glutamax I, 10% FCS, 100 units/mL penicillin and 100 microgram/mL hygromycin.
Seed each cell lines (1×10^5 cells/well) into 96-well plates prior to experimentation.
Incubate at 37° C. in 5% CO2, for 24 hours.
Wash each well with assay buffer (140 mM NaCl, […], 10 mM D-Glucose, 2 mM CaCl2, 1 mM MgCl2, 10 mM HEPES, pH 7.4 adjusted with NaOH) twice.
Add 1st loading solution containing 10 microM PTS18 and 0.06% Pluronic F-127 in assay buffer.
Incubate the plate at rt in dark for 1 hour. • Remove 1st loading solution and add 2nd loading solution containing 12.5 microM DiSBAC2(3), 1.25 mM Xylene Fast Yellow and 0.0075% Pluronic F-127 in assay buffer. • Place the plate under the dark at rt for 25 minutes. • Add compound solutions into the assay plate. • Set the assay plate in FDSS and place an EFS device on the plate. • Measure EFS-induced fluorescent response by FDSS.
The data are analyzed and reported as normalized ratios of intensities measured at […]. The process of calculating these ratios is performed as follows:
This analysis is performed using a computerized specific program designed for
FDSS generated data. Fluorescence ratio values are plotted using XLfit to determine an IC50 value for each, compound.

Nav1.7, sequence (Q15858 whole entry): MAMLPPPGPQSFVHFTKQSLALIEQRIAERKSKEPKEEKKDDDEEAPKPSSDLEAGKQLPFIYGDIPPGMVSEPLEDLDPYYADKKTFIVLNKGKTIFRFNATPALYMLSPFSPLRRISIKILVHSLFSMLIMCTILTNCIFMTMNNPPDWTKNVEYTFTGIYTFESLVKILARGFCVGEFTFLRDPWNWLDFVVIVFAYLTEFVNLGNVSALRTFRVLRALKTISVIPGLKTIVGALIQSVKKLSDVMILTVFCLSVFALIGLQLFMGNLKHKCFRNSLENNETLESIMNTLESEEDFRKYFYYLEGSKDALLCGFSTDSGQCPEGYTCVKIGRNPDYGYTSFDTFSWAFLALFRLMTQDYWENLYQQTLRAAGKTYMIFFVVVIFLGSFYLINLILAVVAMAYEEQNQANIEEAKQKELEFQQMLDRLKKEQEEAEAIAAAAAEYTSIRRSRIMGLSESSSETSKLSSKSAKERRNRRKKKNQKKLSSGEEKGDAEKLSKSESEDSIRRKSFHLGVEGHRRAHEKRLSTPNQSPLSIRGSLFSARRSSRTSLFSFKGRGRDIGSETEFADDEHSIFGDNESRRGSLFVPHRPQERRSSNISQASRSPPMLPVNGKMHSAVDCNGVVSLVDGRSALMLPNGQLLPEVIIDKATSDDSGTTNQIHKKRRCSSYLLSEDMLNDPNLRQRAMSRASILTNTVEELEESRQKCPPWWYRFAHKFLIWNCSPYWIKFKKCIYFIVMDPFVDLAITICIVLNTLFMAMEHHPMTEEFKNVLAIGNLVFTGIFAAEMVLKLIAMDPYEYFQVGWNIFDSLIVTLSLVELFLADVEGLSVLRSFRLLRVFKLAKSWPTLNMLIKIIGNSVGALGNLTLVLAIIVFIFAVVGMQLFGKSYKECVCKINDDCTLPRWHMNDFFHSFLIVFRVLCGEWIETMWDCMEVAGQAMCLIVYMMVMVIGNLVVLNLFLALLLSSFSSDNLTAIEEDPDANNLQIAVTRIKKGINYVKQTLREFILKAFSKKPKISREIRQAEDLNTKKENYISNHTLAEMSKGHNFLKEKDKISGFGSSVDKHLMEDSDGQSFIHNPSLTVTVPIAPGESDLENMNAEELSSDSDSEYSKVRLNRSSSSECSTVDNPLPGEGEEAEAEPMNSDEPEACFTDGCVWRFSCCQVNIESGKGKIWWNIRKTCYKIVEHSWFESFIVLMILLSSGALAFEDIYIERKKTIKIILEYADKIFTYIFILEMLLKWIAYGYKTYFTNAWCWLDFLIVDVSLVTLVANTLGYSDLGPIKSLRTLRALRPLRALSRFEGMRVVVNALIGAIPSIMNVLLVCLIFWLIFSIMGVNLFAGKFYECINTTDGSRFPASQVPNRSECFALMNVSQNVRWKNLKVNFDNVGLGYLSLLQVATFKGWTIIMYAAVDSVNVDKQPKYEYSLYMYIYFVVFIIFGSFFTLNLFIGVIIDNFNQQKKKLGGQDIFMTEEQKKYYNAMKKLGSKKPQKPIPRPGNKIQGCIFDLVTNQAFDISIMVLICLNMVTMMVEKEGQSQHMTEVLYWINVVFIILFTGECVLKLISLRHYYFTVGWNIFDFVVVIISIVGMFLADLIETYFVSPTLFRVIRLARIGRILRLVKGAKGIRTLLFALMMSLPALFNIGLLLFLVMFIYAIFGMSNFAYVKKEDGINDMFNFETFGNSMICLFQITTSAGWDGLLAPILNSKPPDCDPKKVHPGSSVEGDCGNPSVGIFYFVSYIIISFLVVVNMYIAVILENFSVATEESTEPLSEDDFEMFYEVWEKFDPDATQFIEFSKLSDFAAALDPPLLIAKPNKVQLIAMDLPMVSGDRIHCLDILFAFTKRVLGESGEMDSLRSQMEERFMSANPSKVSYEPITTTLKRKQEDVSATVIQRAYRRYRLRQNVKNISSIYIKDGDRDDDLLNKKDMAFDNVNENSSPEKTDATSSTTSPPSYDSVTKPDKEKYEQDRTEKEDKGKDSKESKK

Row | SMILES | IC50 [nM]
1 | CC(=O)Nc1cc(C(=O)NCCSc2ncc(C(F)(F)F)cc2Cl)cc(C)n1 [Example 54] | < 500
2 | CC(=O)Nc1cc(C(=O)NCCOc2ccc3cc(C(F)(F)F)ccc3n2)ccn1 [Example 56] | < 500
3 | CCC(=O)Nc1cc(C(=O)NCCOc2ccc3cc(C(F)(F)F)ccc3n2)ccn1 [Example 57] | < 500
4 | CC(=O)Nc1cc(C(=O)NCCOc2ccc3cc(C(F)(F)F)ccc3n2)cc(C)n1 [Example 58] | < 500
5 | Cc1cc(C(=O)NCCOc2ccc3cc(C(F)(F)F)ccc3n2)cc(NC(=O)C2CC2)n1 [Example 59] | < 500
6 | Cc1cc(C(=O)NCCOc2ccc3cc(C(F)(F)F)ccc3n2)cc(NC(=O)C(C)C)n1 [Example 60] | < 500
7 | CCC(=O)Nc1cc(C(=O)N[C@H](C)COc2ncc(C(F)(F)F)cc2Cl)ccn1 [Example 64] | < 500
8 | CC(=O)Nc1cc(C(=O)N[C@H](C)COc2ncc(C(F)(F)F)cc2Cl)cc(C)n1 [Example 65] | < 500
9 | CCC(=O)Nc1cc(C(=O)N[C@H](C)COc2ncc(C(F)(F)F)cc2Cl)cc(C)n1 [Example 66] | < 500
10 | C[C@H](COc1ncc(C(F)(F)F)cc1Cl)NC(=O)c1ccnc(NC(=O)C2CC2)c1 [Example 67] | < 500
11 | CC(C)C(=O)Nc1cc(C(=O)N[C@H](C)COc2ncc(C(F)(F)F)cc2Cl)ccn1 [Example 68] | < 500
12 | Cc1cc(C(=O)N[C@H](C)COc2ncc(C(F)(F)F)cc2Cl)cc(NC(=O)C2CC2)n1 [Example 69] | < 500
13 | Cc1cc(C(=O)N[C@H](C)COc2ncc(C(F)(F)F)cc2Cl)cc(NC(=O)C(C)C)n1 [Example 70] | < 500
14 | C[C@H](COc1ncc(C(F)(F)F)cc1Cl)NC(=O)c1ccnc(NC(=O)C2CC2)n1 [Example 71] | < 500
15 | CC(=O)Nc1cc(C(=O)NC[C@@H](C)Oc2ncc(C(F)(F)F)cc2Cl)cc(C)n1 [Example 73] | < 500
16 | CCC(=O)Nc1cc(C(=O)NC[C@@H](C)Oc2ncc(C(F)(F)F)cc2Cl)cc(C)n1 [Example 74] | < 500
17 | Cc1cc(C(=O)NC[C@@H](C)Oc2ncc(C(F)(F)F)cc2Cl)cc(NC(=O)C2CC2)n1 [Example 76] | < 500
18 | Cc1cc(C(=O)NC[C@@H](C)Oc2ncc(C(F)(F)F)cc2Cl)cc(NC(=O)C(C)C)n1 [Example 77] | < 500

Row | SMILES | IC50 [nM]
19 | CC(C)C(=O)Nc1cc(C(=O)NCCOc2ccnc3cc(C(F)(F)F)ccc23)ccn1 [Example 80] | < 500
20 | CCCC(=O)Nc1cc(C(=O)NCCOc2ncc(C(F)(F)F)cc2Cl)ccn1 [Example 87] | < 500
21 | CCC(=O)Nc1nc(C)cc(C(=O)NCCOc2ncc(C(F)(F)F)cc2Cl)n1 [Example 89] | < 500
22 | Cc1cc(C(=O)NCCOc2ncc(C(F)(F)F)cc2Cl)nc(NC(=O)C(C)C)n1 [Example 90] | < 500
23 | CC(=O)Nc1cc(C(=O)NCCOc2ccc(C(F)(F)F)cc2F)cc(C)n1 [Example 93] | < 500
24 | CCC(=O)Nc1cc(C(=O)NCCOc2ccc(C(F)(F)F)cc2F)cc(C)n1 [Example 94] | < 500
25 | CC(C)C(=O)Nc1cc(C(=O)NCCOc2ccc(C(F)(F)F)cc2F)ccn1 [Example 96] | < 500
26 | Cc1cc(C(=O)NCCOc2ccc(C(F)(F)F)cc2F)cc(NC(=O)C2CC2)n1 [Example 97] | < 500
27 | Cc1cc(C(=O)NCCOc2ccc(C(F)(F)F)cc2F)cc(NC(=O)C(C)C)n1 [Example 98] | < 500
28 | CCC(=O)Nc1cc(C(=O)NCCOc2ccc(OC(F)(F)F)cc2Cl)cc(C)n1 [Example 105] | < 500
29 | O=C(NCCOc1ccc(OC(F)(F)F)cc1Cl)C1C=C(NC(=O)C2CC2)N=CC1 (stereo not drawn) [Example 106] | < 500
30 | CC(C)C(=O)Nc1cc(C(=O)NCCOc2ccc(OC(F)(F)F)cc2Cl)ccn1 [Example 107] | < 500
31 | Cc1cc(C(=O)NCCOc2ccc(OC(F)(F)F)cc2Cl)cc(NC(=O)C(C)C)n1 [Example 108] | < 500
32 | CC(=O)Nc1cc(C(=O)NCCOc2ccc(OC(F)(F)F)cc2Cl)ccn1 [Example 113] | < 500
33 | CCC(=O)Nc1cc(C(=O)NCCOc2ccc(OC(F)(F)F)cc2Cl)ccn1 [Example 114] | < 500
34 | Cc1cc(C(=O)NCCOc2ccc(OC(F)(F)F)cc2Cl)cc(NC(=O)C2CC2)n1 [Example 115] | < 500
35 | CC(=O)Nc1cc(C(=O)NCCOc2ccc(OC(F)(F)F)cc2Cl)cc(C)n1 [Example 116] | < 500
36 | O=C(NCCOc1ccc(OC(F)(F)F)cc1Cl)c1ccnc(NC(=O)C2CC2)c1 [Example 117] | < 500

Continued, values first:

Row | IC50 [nM] | SMILES
37 | < 500 | CCC(=O)Nc1cc(C(=O)NCCCNc2ncc(C(F)(F)F)cc2Cl)ccn1 [Example 119]
38 | < 500 | CC(C)C(=O)Nc1cc(C(=O)NCCCOc2ncc(C(F)(F)F)cc2Cl)ccn1 [Example 123]
39 | < 500 | COc1cc(C(F)(F)F)ccc1OCCNC(=O)c1ccnc(NC(C)=O)c1 [Example 126]
40 | < 500 | CCC(=O)Nc1cc(C(=O)NCCOc2ccc(C(F)(F)F)cc2OC)ccn1 [Example 127]
41 | < 500 | COc1cc(C(F)(F)F)ccc1OCCNC(=O)c1cc(C)nc(NC(C)=O)c1 [Example 128]
42 | < 500 | CCC(=O)Nc1cc(C(=O)NCCOc2ccc(C(F)(F)F)cc2OC)cc(C)n1 [Example 129]
43 | < 500 | COc1cc(C(F)(F)F)ccc1OCCNC(=O)c1ccnc(NC(=O)C2CC2)c1 [Example 130]
44 | < 500 | COc1cc(C(F)(F)F)ccc1OCCNC(=O)c1ccnc(NC(=O)C(C)C)c1 [Example 131]
45 | < 500 | COc1cc(C(F)(F)F)ccc1OCCNC(=O)c1cc(C)nc(NC(=O)C2CC2)c1 [Example 132]
46 | < 500 | COc1cc(C(F)(F)F)ccc1OCCNC(=O)c1cc(C)nc(NC(=O)C(C)C)c1 [Example 133]
47 | < 500 | COc1cc(C(F)(F)F)ccc1OCCNC(=O)c1ccnc(NC(=O)C2CC2)n1 [Example 134]
48 | < 500 | CC(=O)Nc1cc(C(=O)NCCOc2ccc(C(F)(F)F)cc2C)ccn1 [Example 138]
49 | < 500 | CCC(=O)Nc1cc(C(=O)NCCOc2ccc(C(F)(F)F)cc2C)ccn1 [Example 139]
50 | < 500 | CC(=O)Nc1cc(C(=O)NCCOc2ccc(C(F)(F)F)cc2C)cc(C)n1 [Example 140]
51 | < 500 | CCC(=O)Nc1cc(C(=O)NCCOc2ccc(C(F)(F)F)cc2C)cc(C)n1 [Example 141]
52 | < 500 | Cc1cc(C(F)(F)F)ccc1OCCNC(=O)c1ccnc(NC(=O)C2CC2)c1 [Example 142]
53 | < 500 | Cc1cc(C(F)(F)F)ccc1OCCNC(=O)c1ccnc(NC(=O)C(C)C)c1 [Example 143]
54 | < 500 | Cc1cc(C(=O)NCCOc2ccc(C(F)(F)F)cc2C)cc(NC(=O)C(C)C)n1 [Example 145]
55 | < 500 | Cc1cc(C(F)(F)F)ccc1OCCNC(=O)c1ccnc(NC(=O)C2CC2)n1 [Example 146]
56 | < 500 | CCC(=O)Nc1cc(C(=O)NCCOc2ccc(OC(F)(F)F)c(F)c2)ccn1 [Example 148]
57 | < 500 | CC(C)C(=O)Nc1cc(C(=O)NCCOc2ccc(OC(F)(F)F)c(F)c2)ccn1 [Example 149]
58 | < 500 | O=C(NCCOc1ccc(OC(F)(F)F)c(F)c1)c1ccnc(NC(=O)C2CC2)n1 [Example 150]
59 | < 500 | O=C(NCCOc1ccc(OC(F)(F)F)c(F)c1)c1ccnc(NC(=O)C2CC2)c1 [Example 151]
60 | < 500 | CC(=O)Nc1cc(C(=O)NCCOc2ccc(OC(F)(F)F)c(F)c2)cc(C)n1 [Example 152]
